Patent publication US11208408B2, “Method of controlling scale in aqueous systems” (NOURYON CHEMICALS INTERNATIONAL B.V., priority 2019, dated 2021)
Where a name gives a salt, the structure may show the parent alone.

Assays:
[1] = Fluorescent signal of starting amine, monomers and polymers at pH 7 (Example 22); type: physicochemical; details: 45 ppb of amine or monomer
Procedure: The fluorescent signal for the starting N-(3-dimethylaminopropyl)-4-methoxy-1,8-naphthalilmide, the monomers from Monomer Example 3 and 3a (comparative) and the polymers of Polymer Example 20 (comparative) and Polymer Example 21 were measured at 10 ppm polymer and 45 ppb of N-(3-dimethylaminopropyl)-4-methoxy-1,8-naphthalilmide and monomers at pH 7.

[2] = Fluorescent signal of polymers diluted to 10 ppm at pH 9 (Shimadzu RF-6000 spectro fluorimeter); type: physicochemical; details: non-monomer intermediate at 59 ppb
Procedure: The polymer samples from Polymer Examples 1-4 each were diluted in water to 10 ppm and the pH was adjusted to 9, and the fluorescent signal was determined by excitation of the sample at the excitation wavelengths and measurement at the emission wavelengths as stated in Table 1 using a Shimadzu RF-6000 model spectro fluorimeter.
The fluorescence signal for the polymer of Example 1 at 10 ppm and at pH 9 was measured. Also, the fluorescence intensity of the intermediate N-(3-dimethylaminopropyl)-4-methoxy-1,8-naphthalilmide non-monomer intermediate used to synthesize the monomer used in Example 1 was measured at pH 9 and at 59 ppb. The 59 ppb was used because this is the amount of monomer that would have been present in 10 ppm of polymer.

Row | Compound | Emission wavelength λ [1] | Excitation wavelength λ [1] | Fluorescence intensity [1] | Emission wavelength λ [2] | Excitation wavelength λ [2] | Fluorescence intensity [2]
1 | 4-methoxy-N-(3-dimethylaminopropyl)-1,8-naphthalimide, 2-hydroxy-3-allyloxy propyl, quaternary salt [Monomer Example 3a, reference compound] | 460 nm | 376 nm | 8312 |  |  | 
2 | C=CCOCC(O)C[N+](C)(C)CCCN1C(=O)c2cccc3c(OC)ccc(c23)C1=O (stereo not drawn) [Monomer Example 3, 4-methoxy-N-(3-dimethylaminopropyl)-1,8-naphthalimide, 1 or 2-hydroxy-3-allyloxy propyl, quaternary salt] | 460 nm | 376 nm | 6774 |  |  | 
3 | COc1ccc2c3c(cccc13)C(=O)N(CCCN(C)C)C2=O [N-(3-dimethylaminopropyl)-4-methoxy-1,8-naphthalimide] | 460 nm | 376 nm | 9850 | 462 nm | 376 nm | 7788
